Laboratory results published in patent US20230263822A1, “MODULATION OF FACTOR 11 EXPRESSION” (Ionis Pharmaceuticals, Inc., priority 2008, published 2023).
Entries after “also recorded” stand apart in the source; their conditions may differ.

Key:
murine Factor 11 protein = assay: Factor 11 protein, F11 assay based on clotting time (Example 10); type: in vivo; details: BALB/c mice; for % Inhibition of murine Factor 11 protein: plasma, relative to PBS control
Method: BALB/c mice were injected with 5 mg/kg, 10 mg/kg, 25 mg/kg, or 50 mg/kg of ISIS 404057 or ISIS 404071 twice a week for 3 weeks. A control group of mice was injected with phosphate buffered saline (PBS) twice a week for 3 weeks. Mice were sacrificed 5 days after receiving the last dose. Whole liver was harvested for RNA analysis and plasma was collected for clotting analysis (PT and aPTT) and protein analysis.
Factor 11 proenzyme from the plasma of mice treated with ISIS 404071, was measured using a F11 assay based on clotting time. Clotting times were determined in duplicate with a ST4 semi-automated coagulation instrument (Diagnostica Stago, NJ). Thirty μl of citrated sample plasma diluted 1/20 in HEPES-NaCl buffer with BSA was incubated with 30 μl aPTT reagent (Platelet Factor 3 reagent plus particulate activator) and 30 μl of citrated plasma deficient of Factor 11 (human congential, George King Bio-Medical Inc.) at 37° C. to initiate clotting. Results were interpolated on a standard curve of serially diluted citrated control murine plasma.
Results are presented as percent inhibition of Factor 11, relative to PBS control.

Factor 11 mRNA [1] = assay: Factor 11 mRNA in liver, FeCl3 induced venous thrombosis model vs warfarin (Example 11); type: in vivo, BALB/c mice; details: for % inhibition of Factor 11 mRNA in liver relative to PBS control: FeCl3 VT model
Method: (§1) Two control groups of BALB/c mice were treated with PBS, administered subcutaneously twice a week for 3 weeks. Two days after the last dose of PBS, mice in both groups were anesthetized with 150 mg/kg ketamine mixed with 10 mg/kg xylazine administered by intraperitoneal injection. Thrombus formation was induced with FeCl3 in all groups of mice except the first control group.
(§2) In mice undergoing FeCl3 treatment, thrombus formation was induced by applying a piece of filter paper (2×4 mm) pre-saturated with 10% FeCl3 solution directly on the vena cava. After 3 minutes of exposure, the filter paper was removed. Thirty minutes after the filter paper application, a fixed length of the vein containing the thrombus was dissected out for platelet analysis. Liver was collected for RNA analysis.
RNA was extracted from liver tissue for real-time PCR analysis of Factor 11.

platelet factor-4 (PF-4) [2] = assay: Thrombus formation by PF-4 real-time PCR, FeCl3 induced venous thrombosis model vs warfarin (Example 11); type: in vivo, BALB/c mice; details: for PF-4 in vena cava, percentage as compared to PBS controls (thrombus formation): + FeCl3
Method: as §1, §2
Real-time PCR quantification of platelet factor-4 (PF-4) was used to quantify platelets in the vena cava as a measure of thrombus formation.

Factor 11 mRNA [3] = assay: Factor 11 mRNA in liver, FeCl3 induced venous thrombosis model vs Apixaban (Example 14); type: in vivo, BALB/c mice; details: for % inhibition of Factor 11 mRNA in liver relative to PBS control: FeCl3 VT model
Method: (§3) ISIS 404071 and Apixaban were evaluated in the FeCl3 induced VT mouse model. […] Two days after receiving the last dose of ISIS 404071, mice were anesthetized with 150 mg/kg ketamine mixed with 10 mg/kg xylazine administered by intraperitoneal injection. […] Twenty minutes after receiving Apixaban, mice were anesthetized with 150 mg/kg ketamine mixed with 10 mg/kg xylazine administered by intraperitoneal injection. […] Two days after the last dose of PBS, mice in both groups were anesthetized with 150 mg/kg ketamine mixed with 10 mg/kg xylazine administered by intraperitoneal injection. Thrombus formation was induced with FeCl3 in all of the mice except the first control group.
as §2
RNA was extracted from liver tissue for real-time PCR analysis of Factor 11. Results are presented as percent inhibition of Factor 11, relative to PBS control.

platelet factor-4 (PF-4) [4] = assay: Thrombus formation by PF-4 real-time PCR, FeCl3 induced venous thrombosis model vs Apixaban (Example 14); type: in vivo, BALB/c mice; details: for PF-4 in vena cava, percentage as compared to PBS controls (thrombus formation): + FeCl3
Method: as §3, §2
Real-time PCR quantification of platelet factor-4 (PF-4) was used to quantify platelets in the vena cava as a measure of thrombus formation. […] Results are presented as a percentage of PF-4 in ISIS 404071 or Apixaban treated mice, as compared to the two PBS-treated control groups.

murine Factor 11 mRNA = assay: Time course of Factor 11 mRNA reduction in liver after one dose (Example 29); type: in vivo; details: BALB/c mice, one s.c. dose of 50 mg/kg, 12 hours to 56 days
Method: One dose of 50 mg/kg ISIS 404071 was administered subcutaneously to BALB/c mice. Following ISIS 404071 administration, mice were sacrificed at 12 hours, 1 day, 2 days, 3 days, 4 days, 7 days, 14 days, 28 days, and 56 days. Whole liver was collected for RNA analysis and PPP was collected for aPTT analysis. A control group of mice was treated with one subcutaneous dose of PBS.
RNA was extracted from liver tissue for real-time PCR analysis of Factor 11. Results are presented relative to PBS control. […] Mice began regaining Factor 11 mRNA expression by day 14.

[5] = ISIS 404071 1.25 mg/kg subcutaneously twice a week for 3 weeks
[6] = ISIS 404071 5 mg/kg subcutaneously twice a week for 3 weeks
[7] = ISIS 404071 10 mg/kg subcutaneously twice a week for 3 weeks
[8] = ISIS 404071 20 mg/kg subcutaneously twice a week for 3 weeks
[9] = ISIS 404071 40 mg/kg subcutaneously twice a week for 3 weeks
[10] = FeCl3 induced VT model, vs PBS control
[11] = ISIS 404071 25 mg/kg subcutaneously twice a week for 3 weeks
[12] = ISIS 404071 50 mg/kg subcutaneously twice a week for 3 weeks

ISIS 404071: antisense oligonucleotide targeted to murine Factor 11 mRNA, TGGTAATCCACTTTCAGAGG, target start site 869 (chemistry not given here)
Factor 11 protein (murine Factor 11 protein; 5-50 mg/kg): significant dose-dependent reduction of Factor 11 protein | % Inhibition of murine Factor 11 protein (murine Factor 11 protein; 5 mg/kg): 39% | % Inhibition of murine Factor 11 protein (murine Factor 11 protein; 10 mg/kg): 67% | % Inhibition of murine Factor 11 protein (murine Factor 11 protein; 25 mg/kg): 89% | % Inhibition of murine Factor 11 protein (murine Factor 11 protein; 50 mg/kg): 96% | Factor 11 mRNA in liver vs PBS control (Factor 11 mRNA [1]; FeCl3 induced VT model, ISIS 404071 1.25-40 mg/kg s.c. twice a week 3 weeks, warfarin 0.5-5 mg/kg daily 6 days): significant dose-dependent reduction of Factor 11 mRNA | % inhibition of Factor 11 mRNA in liver relative to PBS control (Factor 11 mRNA [1]; [5]): 0% | % inhibition of Factor 11 mRNA in liver relative to PBS control (Factor 11 mRNA [1]; [6]): 62% | % inhibition of Factor 11 mRNA in liver relative to PBS control (Factor 11 mRNA [1]; [7]): 78% | % inhibition of Factor 11 mRNA in liver relative to PBS control (Factor 11 mRNA [1]; [8]): 92% | % inhibition of Factor 11 mRNA in liver relative to PBS control (Factor 11 mRNA [1]; [9]): 96% | PF-4 in vena cava as measure of thrombus formation (platelet factor-4 (PF-4) [2]; [10]): dose-dependent reduction of PF-4 in comparison to the PBS control for dosages of 5 mg/kg and higher | PF-4 in vena cava, percentage as compared to PBS controls (thrombus formation) (platelet factor-4 (PF-4) [2]; [5]): 143% | PF-4 in vena cava, percentage as compared to PBS controls (thrombus formation) (platelet factor-4 (PF-4) [2]; [6]): 95% | PF-4 in vena cava, percentage as compared to PBS controls (thrombus formation) (platelet factor-4 (PF-4) [2]; [7]): 21% | PF-4 in vena cava, percentage as compared to PBS controls (thrombus formation) (platelet factor-4 (PF-4) [2]; [8]): 37% | PF-4 in vena cava, percentage as compared to PBS controls (thrombus formation) (platelet factor-4 (PF-4) [2]; [9]): 20% | Factor 11 mRNA in liver vs PBS control (Factor 11 mRNA [3]; FeCl3 induced VT model, ISIS 404071 1.25-40 mg/kg, Apixaban 0.5-5 mg/kg s.c. once): significant dose-dependent reduction of Factor 11 mRNA | % inhibition of Factor 11 mRNA in liver relative to PBS control (Factor 11 mRNA [3]; [5]): 15% | % inhibition of Factor 11 mRNA in liver relative to PBS control (Factor 11 mRNA [3]; [6]): 63% | % inhibition of Factor 11 mRNA in liver relative to PBS control (Factor 11 mRNA [3]; [7]): 76% | % inhibition of Factor 11 mRNA in liver relative to PBS control (Factor 11 mRNA [3]; [11]): 91% | % inhibition of Factor 11 mRNA in liver relative to PBS control (Factor 11 mRNA [3]; [12]): 95% | PF-4 in vena cava as measure of thrombus formation (platelet factor-4 (PF-4) [4]; [10]): resulted in reduction of PF-4 | PF-4 in vena cava, percentage as compared to PBS controls (thrombus formation) (platelet factor-4 (PF-4) [4]; [5]): 42% | PF-4 in vena cava, percentage as compared to PBS controls (thrombus formation) (platelet factor-4 (PF-4) [4]; [6]): 60% | PF-4 in vena cava, percentage as compared to PBS controls (thrombus formation) (platelet factor-4 (PF-4) [4]; [7]): 28% | PF-4 in vena cava, percentage as compared to PBS controls (thrombus formation) (platelet factor-4 (PF-4) [4]; [11]): 14% | PF-4 in vena cava, percentage as compared to PBS controls (thrombus formation) (platelet factor-4 (PF-4) [4]; [12]): 4% | Factor 11 mRNA expression in liver over time (murine Factor 11 mRNA): significant Factor 11 mRNA down-regulation by day 1; also recorded: regained full Factor 11 mRNA expression by day 28; also recorded: did not experience a rebound effect
